Assays:
MPS1 = biological target: T1, MPS1 (Homo sapiens, UniProt P33981); assay: In vitro MPS1 inhibitory assay; assay type: biochemical
T1 construct: purchased Abcam
T1 sequence (P33981 1-857): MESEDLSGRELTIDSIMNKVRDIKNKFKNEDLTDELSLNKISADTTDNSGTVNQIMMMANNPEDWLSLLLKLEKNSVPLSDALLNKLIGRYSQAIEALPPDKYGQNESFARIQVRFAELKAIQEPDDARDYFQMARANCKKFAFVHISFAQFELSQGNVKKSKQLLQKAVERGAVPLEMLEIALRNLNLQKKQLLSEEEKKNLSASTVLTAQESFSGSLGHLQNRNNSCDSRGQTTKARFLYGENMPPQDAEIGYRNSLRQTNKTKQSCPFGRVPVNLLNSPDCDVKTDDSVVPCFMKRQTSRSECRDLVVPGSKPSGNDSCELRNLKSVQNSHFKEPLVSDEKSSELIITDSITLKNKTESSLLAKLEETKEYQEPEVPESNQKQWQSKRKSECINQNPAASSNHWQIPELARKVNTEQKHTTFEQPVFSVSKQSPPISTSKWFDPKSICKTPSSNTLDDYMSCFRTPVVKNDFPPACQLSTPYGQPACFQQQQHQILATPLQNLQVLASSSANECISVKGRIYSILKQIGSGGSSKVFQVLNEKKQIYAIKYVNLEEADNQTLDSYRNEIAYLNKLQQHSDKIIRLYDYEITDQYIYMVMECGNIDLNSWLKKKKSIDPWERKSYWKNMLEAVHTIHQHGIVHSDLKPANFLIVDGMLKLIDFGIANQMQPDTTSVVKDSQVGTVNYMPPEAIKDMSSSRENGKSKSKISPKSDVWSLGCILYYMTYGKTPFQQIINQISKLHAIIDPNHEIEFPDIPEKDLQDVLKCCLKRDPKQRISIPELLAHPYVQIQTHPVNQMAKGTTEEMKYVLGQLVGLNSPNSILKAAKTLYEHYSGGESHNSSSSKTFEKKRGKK
Protocol: The methodology is as previously described ([Naud et al., 2013]). In brief, the experiment was conducted using 384-well black low-volume plates, which were loaded with MPS1 (concentration range of 3–12.5 nM), 5 μM fluorescence-labelled peptide (sequence: 5FAM-[…]-CONH2), 10 μM ATP, 1% (v/v) DMSO or the test compound (concentrations in 1% (v/v) DMSO ranged from 0.25 to 100 μM), and assay buffer. […]. The plate was read on a Caliper EZ reader II (PerkinElmer Life Sciences, Waltham, MA, United States). […]

HDAC8 = biological target: T2, HDAC8 (Homo sapiens, UniProt Q9BY41); assay: In vitro HDAC8 inhibitory assay; assay type: biochemical
T2 construct: purchased Abcam
T2 sequence (Q9BY41 1-377): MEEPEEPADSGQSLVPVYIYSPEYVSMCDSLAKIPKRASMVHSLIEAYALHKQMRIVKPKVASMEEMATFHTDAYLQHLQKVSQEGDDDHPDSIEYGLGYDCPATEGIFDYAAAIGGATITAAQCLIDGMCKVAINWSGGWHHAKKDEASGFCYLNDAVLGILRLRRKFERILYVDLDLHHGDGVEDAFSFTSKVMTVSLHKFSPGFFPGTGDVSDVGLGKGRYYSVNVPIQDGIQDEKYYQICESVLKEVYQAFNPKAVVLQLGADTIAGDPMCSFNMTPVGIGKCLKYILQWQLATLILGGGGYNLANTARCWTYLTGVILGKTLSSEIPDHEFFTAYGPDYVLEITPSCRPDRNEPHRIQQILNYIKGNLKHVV
Protocol: Inhibition of HDAC8 was determined in 96-well plates. […] The assessment of fluorescence intensity was executed at 390 nm and 460 nm via a microplate reader.

Huh-1 = assay: MTT cytotoxicity assay, Huh-1; assay type: cell-based; conditions: Homo sapiens, 72 h cell treatment
Protocol: (§1) The cells (5 × 10^4 cells/well) were incubated overnight in 96-well plates. A series of solutions containing varying concentrations of inhibitors were added and incubated at 37°C for a period of 72 h. Subsequently, the culture medium was removed, followed by a subsequent incubation of the cells with a 5 mg/mL MTT stock solution for 4 h. After centrifugation, the precipitate was solubilized in DMSO and gently shaken for 15 min. Finally, the absorbance measurement at 570 nm was completed using a microplate reader. Data analysis was performed using GraphPad Prism 6.0 software.

Li-7 = assay: MTT cytotoxicity assay, Li-7; assay type: cell-based; conditions: Homo sapiens, 72 h cell treatment
Protocol: as §1

[1] = system: drug-resistant liver cancer cells (R-HepG2); assay: MTT cytotoxicity assay, R-HepG2; assay type: cell-based; conditions: Homo sapiens, 72 h cell treatment
Protocol: as §1

L02 = assay: MTT cytotoxicity assay, L02 normal cells; assay type: cell-based; conditions: Homo sapiens, 72 h cell treatment
Protocol: as §1

MCF10A = assay: MTT cytotoxicity assay, MCF10A normal cells; assay type: cell-based; conditions: Homo sapiens, MCF-10A, 72 h cell treatment
Protocol: as §1

BEAS-2B = assay: MTT cytotoxicity assay, BEAS-2B normal cells; assay type: cell-based; conditions: Homo sapiens, 72 h cell treatment
Protocol: as §1

P-histone H3 = assay: Gene expression analysis of P-histone H3 in HepG2 cells; assay type: cell-based, human; conditions: 20 h, 0.25, 1 and 5 μM
Protocol: Total RNA was extracted after the indicated treatments using the RNeasy Mini Kit (cat. no. 74106; QIAGEN, Hilden, Germany) following the manufacturer’s protocol. The concentration of RNA was measured on a plate reader, and then the extracted RNA was converted to cDNA using a High-Capacity RNA-to-cDNA kit from Applied Biosystems (Thermo Fisher Scientific, Inc.). Quantitative real-time polymerase chain reaction was performed in triplicate in a 96-well optical PCR plate using a QuantStudio Real-Time PCR System. Gene expression levels were evaluated using the comparative CT method. Graphical representations of the data were generated by GraphPad Prism 8.
Previous studies indicate that MPS1 inhibitor exerts its antitumor effects by downregulating the levels of phosphorylated histone H3 ([Naud et al., 2013]), while HDAC8 inhibitor achieves its antitumor activity by upregulating lysine residue 62 acetylation (Ace-K62) levels of pyruvate kinase M2 (PKM2) ([Zhang et al., 2020]). The gene expression of P-histone H3 and Ace-K62 was detected in HepG2 cells with the treatment of MPH-5 for 20 h (at the concentration of 0, 0.25, 1, and 5 μM, respectively). […] As the concentration of MPH-5 increases, the inhibitory effect on P-histone H3 and the promotional effect on Ace-K62 become more pronounced.

## Cn1cc(-c2cc3cnc(Nc4ccc(-c5cncn5/C=C/C(=O)NO)cc4Cl)cc3n2C(=O)OC(C)(C)C)cn1 [MPH-5]
MPS1
  IC50: 4.52 ± 0.21 nM
MPS1; vs AZ3146
  MPS1 IC50 of MPH-5 relative to AZ3146: about 8 fold
HDAC8; 90 min at 37°C
  IC50: 6.07 ± 0.37 nM
HDAC8; vs belinostat
  HDAC8 IC50 of MPH-5 relative to belinostat: about 4 fold
Huh-1
  IC50: 0.32 µM
Li-7
  IC50: 0.64 µM
[1]
  IC50: 0.27 µM
L02
  IC50: > 10 µM
MCF10A
  IC50: > 10 µM
BEAS-2B
  IC50: > 10 µM
P-histone H3
  phosphorylated histone H3 levels: dose-dependent regulation

Reference: PMC11439681, “The identification of potent dual-target monopolar spindle 1 (MPS1) and histone deacetylase 8 (HDAC8) inhibitors through pharmacophore modeling, molecular docking, molecular dynamics simulations, and biological evaluation” (Frontiers in Pharmacology, 2024)
